From patent publication EP0179667B1, “N6-substituted adenosines” (priority 1984, dated 1986)
pIC50: −log10 of the molar value.

How the values were obtained:
Swiss-Webster male mice [1] = assay: Mouse Activity and Screen Test Procedure (MAST): locomotor activity in actophotometer; type: in vivo; details: one hour prior to testing
Protocol: Nine unfasted Swiss-Webster male mice weighing 20-30 g equally divided into three groups for each drug dose to be tested. That is, data for each dose level was generated by three separated groups of three mice each. A minimum of three dose levels (10, 30, and 100 mg/kg) are tested for each drug. Treatments are administered intraperitoneally one hour prior to testing. All dosages are calculated as parent compound and given in volumes of 10 ml/kg. […] Control animals are injected with Methocel. […] The actophotometer consists of a cylindrical chamber whose center is occupied by another cylinder which contains the illumination for six photocells located on the perimeter of the chamber. Six light-beam interruptions equal one count. […] Data: The data obtained from the screen test are expressed as percent of mice falling off the screen. Data derived from locomotor activity of drug treated mice are compared to the activity of vehicle treated animals and are expressed as percent inhibition of spontaneous locomotion. All percentages reported for inhibition of locomotion (LI) are based upon data accumulated for one hour. […] An overall dose rating is obtained by the following criteria: LAD refers to the lowest dose at which an A rating is achieved. […] The compounds are identified in the Examples.

Swiss-Webster male mice [2] = assay: Mouse Activity and Screen Test Procedure (MAST): screen test (ST); type: in vivo; details: one hour postinjection
Text: The compounds of the invention are new chemical substances which are useful as pharmaceutical agents for the treatment of psychoses. The antipsychotic activity of representative compounds of the invention was established by the Mouse Activity and Screen Test Procedrue (MAST) described below.
Nine unfasted Swiss-Webster male mice weighing 20-30 g equally divided into three groups for each drug dose to be tested. That is, data for each dose level was generated by three separated groups of three mice each.
A minimum of three dose levels (10, 30, and 100 mg/kg) are tested for each drug. Treatments are administered intraperitoneally one hour prior to testing. All dosages are calculated as parent compound and given in volumes of 10 ml/kg. Compounds are dissolved or suspended in 0.2% Methocel. Control animals are injected with Methocel.
Testing: A two part testing procedure is started one hour postinjection. First, the screen test (ST) is performed (see Pharmac. Biochem. Behav. 6, 351-353, 1977). Briefly this test consists of placing mice on individual wire screens which are then rotated 180 degrees at the start of a 60 second observation period. The number of mice falling off the inverted screen is recorded.
Data: The data obtained from the screen test are expressed as percent of mice falling off the screen. Data derived from locomotor activity of drug treated mice are compared to the activity of vehicle treated animals and are expressed as percent inhibition of spontaneous locomotion. All percentages reported for inhibition of locomotion (LI) are based upon data accumulated for one hour. Both phases of testing are graded: A=60-100%; G=31-59%; and N=0-30%. An overall dose rating is obtained by the following criteria:
LAD refers to the lowest dose at which an A rating is achieved. […] Utilizing this procedure, an overall dose rating of A was obtained for the noted compound at the indicated dose. The compounds are identified in the Examples.

adenosine A1 receptor = biological target: T1, adenosine A1 receptor (Rattus norvegicus, UniProt P25099); assay: Adenosine Receptor Binding - A1 Receptor Affinity (RBA1); details: [3H]-CHA, rat whole brain membranes; read-out: RBA-1
T1 construct: Whole brain minus cerebellum and brainstem from male Long Evans rats (150-200 g) was homogenized; from tissue; host or cells: rat whole brain minus cerebellum and brainstem, membrane homogenate
T1 sequence (P25099 1-326): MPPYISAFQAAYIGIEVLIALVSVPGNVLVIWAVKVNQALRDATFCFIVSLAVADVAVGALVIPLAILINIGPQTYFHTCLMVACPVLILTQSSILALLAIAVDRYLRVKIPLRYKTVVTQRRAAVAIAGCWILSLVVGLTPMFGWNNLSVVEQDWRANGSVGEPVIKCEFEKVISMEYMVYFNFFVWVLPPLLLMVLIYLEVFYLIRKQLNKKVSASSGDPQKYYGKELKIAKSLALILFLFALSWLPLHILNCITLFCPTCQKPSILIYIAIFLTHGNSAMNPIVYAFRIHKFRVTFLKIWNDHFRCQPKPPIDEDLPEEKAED
Protocol: Adenosine Receptor Binding - A1 Receptor Affinity (RBA1)
Whole brain minus cerebellum and brainstem from male Long Evans rats (150-200 g) was homogenized in 30 volumes of ice-cold 0.05 M Tris-HCI buffer pH 7.7 using a Brinkman Polytron PT-10 (setting number 6 for 20 seconds) and centrifuged for ten minutes at 20,000 x g (Sorvall RC-2), 4°C. The supernatant was discarded, and the pellet was resuspended and centrifuged as before. The pellet was resuspended in 20 ml Tris-HCI buffer containing two International Units/ml of adenosine deaminase (Sigma type III from calf intestinal mucosa), incubated at 37°C for 30 minutes, then subsequently at 0°C for ten minutes. The homogenate was again centrifuged, and the final pellet was resuspended in ice-cold 0.05 M Tris-HCI buffer pH 7.7 to a concentration of 20 mg/ml original wet tissue weight and used immediately.
Tissue homogenate (10 mg/ml) was incubated in 0.05 M Tris-HCI buffer pH 7.7 containing 1.0 nM [^3H]-N^6-cyclohexyladenosine (^3H]-CHA) with or without test agents in triplicate for one hour at 25°C. Incubation volume was 2 ml. Unbound [^3H]-CHA was separated by rapid filtration under reduced pressure through Whatman glass fiber (GF/B) filters. The filters were rinsed three times with 5 ml of ice cold 0.05 M Tris-HCI buffer pH 7.7. The radio-labeled ligand retained on the filter was measured by liquid scintillation spectrophotometry after shaking the filters for one hour or longer on a mechanical shaker in 10 ml of Beckman Ready Solv HP scintillation cocktail.
Nonspecific binding was defined as the binding which occurred in the presence of 1 mM thophylline. […] The Scatchard plot was calculated by linear regression of the line obtained by plotting the amount of radioligand bound (pmoles/gram of tissue) versus [formula] Since the amount of radioligand bound was a small fraction of the total amount added, free radioligand was defined as the concentration (nM) of radioligand added to the incubation mixture. The Hill coefficient was calculated by linear regression of the line obtained by plotting the log of the bound radioligand vs the log of the [formula] The maximal number of binding sites (Bmax) was calculated from the Scatchard plot.

adenosine A2 receptor = biological target: T2, adenosine A2 receptor (Rattus norvegicus, UniProt P30543); assay: Adenosine Receptor Binding - A2 Receptor Affinity (RBA2); details: [3H]NECA, rat striatal membranes; read-out: RBA-2
T2 construct: 5 mg original tissue weight of rat weight of rat striatal membranes; tissue Pel-Freez (Rogers, Arkansas); host or cells: rat striatum, membrane preparation
T2 sequence (P30543 whole entry): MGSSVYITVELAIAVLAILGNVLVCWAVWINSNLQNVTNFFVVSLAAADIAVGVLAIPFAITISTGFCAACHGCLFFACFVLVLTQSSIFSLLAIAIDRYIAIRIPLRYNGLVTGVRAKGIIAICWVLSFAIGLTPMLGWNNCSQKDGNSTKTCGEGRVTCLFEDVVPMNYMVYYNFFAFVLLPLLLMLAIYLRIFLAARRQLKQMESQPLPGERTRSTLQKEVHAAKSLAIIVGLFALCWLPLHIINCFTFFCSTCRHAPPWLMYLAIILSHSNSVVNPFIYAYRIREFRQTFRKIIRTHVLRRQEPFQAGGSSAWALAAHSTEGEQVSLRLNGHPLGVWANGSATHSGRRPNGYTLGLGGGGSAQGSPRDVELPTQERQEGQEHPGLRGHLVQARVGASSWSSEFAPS
Protocol: Adenosine Receptor Binding - A2 Receptor Affinity (RBA2)
Brains from 200-500 g mixed sex Sprague-Dawley rats were purchased from Pel-Freez (Rogers, Arkansas). […] Brains were thawed and then kept on ice while the striata were dissected out. […] When needed, tissue was thawed at room temperature, disrupted in a Polytron, and kept on ice until used.
All incubations were for 60 minutes at 25°C in 12x75 mm glass tubes containing 1 ml Tris with 5 mg original tissue weight of rat weight of rat striatal membranes, 4 nM [^3H]-N-ethyl adenosine-5'-carboxamide ([^3H]NECA), 50 nM N^6-cyclopentyladenosine (to eliminate A1 receptor binding), 10 mM MgCl2, 0.1 units/ml of adenosine deaminase and 1% dimethylsulfoxide. N^6-Cyclopentyladenosine was dissolved at 10 mM in 0.02 N HCI and diluted in Tris. […] Test compounds were dissolved at 10 mM in dimethylsulfoxide on the same day as the experiment, and diluted in dimethylsulfoxide to 100x the final incubation concentration. […] [^3H]NECA was diluted to 40 nM in Tris. The membrane suspension (5 mg/0.79 ml) contained sufficient MgC12 and adenosine deaminase to give 10 mM and 0.1 units/ml, respectively, final concentration in the incubation. For test compounds with lC50 values less than 1 µM, the order of additions was test compound (10 µl), N^6-cyclopentyladenosine (100 µl), [^3H]NECA (100 µl), and membranes (0.79 ml). […] After all additions, the rack of tubes was vortexed, and the tubes were then incubated for 60 min at 25°C in a shaking water bath. The rack of tubes was vortexed an additional time halfway through the incubation.
incubations were terminated by filtration through 2.4 cm GF/B filters under reduced pressure. Each tube was filtered as follows: the contents of the tube were poured onto the filter, 4 ml of ice-cold Tris were added to the tube and the contents poured onto the filter, and the filter was washed twice with 4 ml of ice-cold Tris. The filtration was complete in about twelve seconds.
Nonspecific binding was defined as binding in the presence of 100 µM N^6-cyclopentyladenosine, and specific binding was defined as total binding minus nonspecific binding. The IC50 was calculated by weighed nonlinear least squares curve-fitting to the mass-action equation. [formula] • where Y is cpm bound • T is cpm total binding without drug • S is cpm specific binding without drug • D is the concentration of drug • and K is the IC50 of the drug Weighting factors were calculated under the assumption that the standard deviation was proportional to the predicted value of Y. Nonspecific binding was treated as a very large (infinite) concentration of drug in the computer analysis.

Compound | Inhibition of mouse locomotor activity (Swiss-Webster male mice [1]; 1 mg/kg intraperitoneally) [%] | Inhibition of mouse locomotor activity (Swiss-Webster male mice [1]; 3 mg/kg intraperitoneally) [%] | Inhibition of mouse locomotor activity (Swiss-Webster male mice [1]; 10 mg/kg intraperitoneally) [%] | Inhibition of mouse locomotor activity (Swiss-Webster male mice [1]; 30 mg/kg intraperitoneally) [%] | Screen test failure (Swiss-Webster male mice [2]; 1 mg/kg intraperitoneally) [%] | Screen test failure (Swiss-Webster male mice [2]; 3 mg/kg intraperitoneally) [%] | Screen test failure (Swiss-Webster male mice [2]; 10 mg/kg intraperitoneally) [%] | Screen test failure (Swiss-Webster male mice [2]; 30 mg/kg intraperitoneally) [%] | pIC50 (adenosine A1 receptor) | pIC50 (adenosine A2 receptor)
CCOC(=O)OC[C@H]1O[C@@H](n2cnc3c(NC4CCCc5ccccc54)ncnc32)[C@H](OC(=O)OCC)[C@@H]1OC(=O)OCC (stereo partly drawn) [Example 19, N^6-1-tetralinyl-2',3',5'-triethylcarbonate-adenosine] | 42 | 57 | 91 | 95 | 11 | 0 | 0 | 11 | – | –
O=C(OC[C@H]1O[C@@H](n2cnc3c(NC4CCCc5ccccc54)ncnc32)[C@H](O)[C@@H]1O)c1ccccc1 (stereo partly drawn) [Example 13, N^6-(1-tetralinyl)-5'-benzoyladenosine] | – | – | – | – | – | – | – | – | 5.97 | 5.10
CC1(C)O[C@@H]2[C@H](O1)[C@@H](CO)O[C@H]2n1cnc2c(NC3CCCc4ccccc43)ncnc21 (stereo partly drawn) [Example 12, N^6-(1-tetralinyl)-2',3'-O-isopropylidene-adenosine] | – | 3 | −1 | −16 | – | 0 | 0 | 0 | 4.65 | –
COc1cccc2c1CCC[C@H]2Nc1ncnc2c1ncn2[C@@H]1O[C@H](CO)[C@@H](O)[C@H]1O [Example 11, (R)-N^6-[5-methoxy-1-aminotetralin]-adenosine] | – | – | – | – | – | – | – | – | 6.35 | 5.58
O[C@@H]1[C@H](O)[C@@H](COCc2ccccc2)O[C@H]1n1cnc2c(NC3CCCc4ccccc43)ncnc21 (stereo partly drawn) [Example 20, N^6-tetralinyl-5'-benzylether-adenosine] | – | – | – | – | – | – | – | – | 5.23 | 4.33
